Test results as given in the NIST ThermoML archive (doi:10.1016/j.fluid.2010.02.010).
± gives the expanded uncertainty stated by the source.

Assay: activity coefficient (dimensionless); of the first substance listed, at infinite dilution; xn = mol fraction of the nth substance listed
Conditions: 101 kPa, Liquid, x1 = 0

Q: Which activity coefficient (303.18 K, dilutor technique) does the source give for `C=CCCC` [1-pentene] + CCCCCCn1cc[n+](C)c1.O=S(=O)([O-])C(F)(F)F here?
A: The activity coefficient was 4.62 ± 0.23.

Q: And the activity coefficient (313.15 K, dilutor technique)?
A: Its activity coefficient is 4.58 ± 0.23.

Q: What about the activity coefficient (323.16 K, dilutor technique) of the same compound?
A: The activity coefficient was 4.54 ± 0.23.

Q: And the activity coefficient (333.15 K, dilutor technique)?
A: Its activity coefficient is 4.51 ± 0.23.

Q: Which activity coefficient (303.45 K, Chromatography) does the source give for `C=CCCC` [1-pentene] + CCCCn1cc[n+](C)c1.O=S(=O)([O-])C(F)(F)F here?
A: The activity coefficient was 10.1 ± 0.69.

Q: And the activity coefficient (313.15 K, Chromatography)?
A: The activity coefficient was 9.69 ± 0.66.

Q: And the activity coefficient (313.15 K, Dilutor technique)?
A: The activity coefficient was 9.55 ± 0.48.

Q: And the activity coefficient (323.15 K, Chromatography)?
A: Its activity coefficient is 9.48 ± 0.65.

Q: What about the activity coefficient (323.15 K, Dilutor technique) of the same compound?
A: The activity coefficient was 9.34 ± 0.47.

Q: And the activity coefficient (333.15 K, Chromatography)?
A: Its activity coefficient is 9.18 ± 0.63.

Q: And the activity coefficient (333.18 K, Dilutor technique)?
A: The activity coefficient was 9.06 ± 0.45.

Q: Which results are given for `CCCCCCC` [heptane] + CCCCCCCCn1cc[n+](C)c1.O=S(=O)([O-])C(F)(F)F?
A: activity coefficient (303.16 K, dilutor technique): 9.59 ± 0.48; activity coefficient (313.14 K, dilutor technique): 9.42 ± 0.47; activity coefficient (323.14 K, dilutor technique): 9.26 ± 0.46; activity coefficient (333.11 K, dilutor technique): 9.06 ± 0.45

Q: What does the source list for `CCCCCCC` [heptane] + CCCCCCn1cc[n+](C)c1.O=S(=O)([O-])C(F)(F)F?
A: activity coefficient (303.16 K, dilutor technique): 19.2 ± 0.96; activity coefficient (313.18 K, dilutor technique): 18 ± 0.9; activity coefficient (323.16 K, dilutor technique): 17.4 ± 0.87; activity coefficient (333.14 K, dilutor technique): 16.6 ± 0.83

Q: Which activity coefficient (303.12 K, Dilutor technique) does the source give for `CCCCCCC` [heptane] + CCCCn1cc[n+](C)c1.O=S(=O)([O-])C(F)(F)F here?
A: Its activity coefficient is 45 ± 2.2.

Q: And the activity coefficient (303.45 K, Chromatography)?
A: The activity coefficient was 45 ± 3.1.

Q: What about the activity coefficient (313.15 K, Chromatography) of the same compound?
A: Its activity coefficient is 42.4 ± 2.9.

Q: And the activity coefficient (313.15 K, Dilutor technique)?
A: Its activity coefficient is 42.3 ± 2.1.

Q: What about the activity coefficient (323.12 K, Dilutor technique) of the same compound?
A: The activity coefficient was 39.8 ± 2.

Q: What about the activity coefficient (323.14 K, Chromatography) of the same compound?
A: The activity coefficient was 39.8 ± 2.7.

Q: And the activity coefficient (333.15 K, Chromatography)?
A: Its activity coefficient is 37 ± 2.5.

Q: What about the activity coefficient (333.21 K, Dilutor technique) of the same compound?
A: Its activity coefficient is 36.9 ± 1.9.

Q: What does the source list for `C=CCCCC` [hex-1-ene] + CCCCCCCCn1cc[n+](C)c1.O=S(=O)([O-])C(F)(F)F?
A: activity coefficient (303.13 K, dilutor technique): 4.68 ± 0.23; activity coefficient (313.13 K, dilutor technique): 4.61 ± 0.23; activity coefficient (323.16 K, dilutor technique): 4.57 ± 0.23; activity coefficient (333.16 K, dilutor technique): 4.53 ± 0.23

Q: Which results are given for `C=CCCCC` [hex-1-ene] + CCCCCCn1cc[n+](C)c1.O=S(=O)([O-])C(F)(F)F?
A: activity coefficient (303.18 K, dilutor technique): 7.4 ± 0.37; activity coefficient (313.15 K, dilutor technique): 7.23 ± 0.36; activity coefficient (323.16 K, dilutor technique): 7.03 ± 0.35; activity coefficient (333.15 K, dilutor technique): 6.86 ± 0.34

Q: With `C=CCCCC` [hex-1-ene] + CCCCn1cc[n+](C)c1.O=S(=O)([O-])C(F)(F)F as the compound, how does the activity coefficient (303.17 K, Dilutor technique) read?
A: Its activity coefficient is 14.3 ± 0.71.

Q: And the activity coefficient (303.45 K, Chromatography)?
A: Its activity coefficient is 14.4 ± 0.98.

Q: What about the activity coefficient (313.15 K, Dilutor technique) of the same compound?
A: The activity coefficient was 13.8 ± 0.69.

Q: And the activity coefficient (313.36 K, Chromatography)?
A: The activity coefficient was 14 ± 0.96.

Q: And the activity coefficient (323.14 K, Chromatography)?
A: Its activity coefficient is 13.5 ± 0.92.

Q: What about the activity coefficient (323.15 K, Dilutor technique) of the same compound?
A: Its activity coefficient is 13.5 ± 0.67.

Q: And the activity coefficient (333.14 K, Chromatography)?
A: Its activity coefficient is 13 ± 0.89.

Q: What about the activity coefficient (333.18 K, Dilutor technique) of the same compound?
A: Its activity coefficient is 12.9 ± 0.65.

Q: Which activity coefficient (303.15 K, dilutor technique) does the source give for `CCCCCC` [hexane] + CCCCCCCCn1cc[n+](C)c1.O=S(=O)([O-])C(F)(F)F here?
A: The activity coefficient was 7.25 ± 0.36.

Q: And the activity coefficient (323.16 K, dilutor technique)?
A: Its activity coefficient is 7.15 ± 0.36.

Q: And the activity coefficient (333.18 K, dilutor technique)?
A: Its activity coefficient is 7.09 ± 0.35.

Q: With `CCCCCC` [hexane] + CCCCCCn1cc[n+](C)c1.O=S(=O)([O-])C(F)(F)F as the compound, how does the activity coefficient (303.11 K, dilutor technique) read?
A: Its activity coefficient is 12.8 ± 0.64.

Q: What about the activity coefficient (313.16 K, dilutor technique) of the same compound?
A: The activity coefficient was 11.9 ± 0.6.

Q: What about the activity coefficient (323.17 K, dilutor technique) of the same compound?
A: Its activity coefficient is 11.4 ± 0.57.

Q: And the activity coefficient (333.17 K, dilutor technique)?
A: Its activity coefficient is 10.9 ± 0.55.

Q: Which activity coefficient (303.16 K, Dilutor technique) does the source give for `CCCCCC` [hexane] + CCCCn1cc[n+](C)c1.O=S(=O)([O-])C(F)(F)F here?
A: The activity coefficient was 29 ± 1.4.

Q: What about the activity coefficient (303.45 K, Chromatography) of the same compound?
A: Its activity coefficient is 29.8 ± 2.

Q: What about the activity coefficient (313.15 K, Chromatography) of the same compound?
A: The activity coefficient was 28.4 ± 1.9.

Q: And the activity coefficient (313.19 K, Dilutor technique)?
A: Its activity coefficient is 27.7 ± 1.4.

Q: What about the activity coefficient (323.14 K, Chromatography) of the same compound?
A: Its activity coefficient is 26.5 ± 1.8.

Q: And the activity coefficient (323.16 K, Dilutor technique)?
A: Its activity coefficient is 25.9 ± 1.3.

Q: What about the activity coefficient (333.15 K, Chromatography) of the same compound?
A: Its activity coefficient is 24.8 ± 1.7.

Q: What about the activity coefficient (333.22 K, Dilutor technique) of the same compound?
A: The activity coefficient was 24.5 ± 1.2.

Q: For `C=CCCCCCC` [oct-1-ene] + CCCCCCCCn1cc[n+](C)c1.O=S(=O)([O-])C(F)(F)F, which activity coefficient (303.21 K, dilutor technique) is on record?
A: The activity coefficient was 8 ± 0.4.

Q: And the activity coefficient (313.15 K, dilutor technique)?
A: Its activity coefficient is 7.86 ± 0.39.

Q: What about the activity coefficient (323.14 K, dilutor technique) of the same compound?
A: The activity coefficient was 7.79 ± 0.39.

Q: And the activity coefficient (333.12 K, dilutor technique)?
A: The activity coefficient was 7.66 ± 0.38.

Q: What does the source list for `C=CCCCCCC` [oct-1-ene] + CCCCCCn1cc[n+](C)c1.O=S(=O)([O-])C(F)(F)F?
A: activity coefficient (303.14 K, Chromatography): 15.4 ± 1.1; activity coefficient (303.16 K, dilutor technique): 15 ± 0.75; activity coefficient (313.15 K, Chromatography): 15 ± 1; activity coefficient (313.17 K, dilutor technique): 14.5 ± 0.73; activity coefficient (323.15 K, Chromatography): 14.6 ± 1; activity coefficient (323.15 K, dilutor technique): 14.2 ± 0.71; activity coefficient (333.14 K, Chromatography): 14.3 ± 0.98; activity coefficient (333.18 K, dilutor technique): 13.7 ± 0.69

Q: Which activity coefficient (303.17 K, Dilutor technique) does the source give for `C=CCCCCCC` [oct-1-ene] + CCCCn1cc[n+](C)c1.O=S(=O)([O-])C(F)(F)F here?
A: The activity coefficient was 33.3 ± 0.67.

Q: And the activity coefficient (303.45 K, Chromatography)?
A: Its activity coefficient is 33.7 ± 2.3.

Q: And the activity coefficient (313.13 K, Dilutor technique)?
A: Its activity coefficient is 31.5 ± 0.63.

Q: What about the activity coefficient (313.15 K, Chromatography) of the same compound?
A: Its activity coefficient is 32 ± 2.2.

Q: And the activity coefficient (323.14 K, Chromatography)?
A: The activity coefficient was 30.6 ± 2.1.

Q: And the activity coefficient (323.16 K, Dilutor technique)?
A: The activity coefficient was 29.9 ± 0.6.

Q: And the activity coefficient (333.15 K, Chromatography)?
A: The activity coefficient was 29.3 ± 2.

Q: What about the activity coefficient (333.16 K, Dilutor technique) of the same compound?
A: The activity coefficient was 29 ± 0.58.

Q: For `CCCCCCCC` [octane] + CCCCCCCCn1cc[n+](C)c1.O=S(=O)([O-])C(F)(F)F, which activity coefficient (303.16 K, dilutor technique) is on record?
A: Its activity coefficient is 12.6 ± 0.63.

Q: What about the activity coefficient (313.14 K, dilutor technique) of the same compound?
A: Its activity coefficient is 12.2 ± 0.61.

Q: What about the activity coefficient (323.14 K, dilutor technique) of the same compound?
A: Its activity coefficient is 12 ± 0.6.

Q: And the activity coefficient (333.11 K, dilutor technique)?
A: Its activity coefficient is 11.7 ± 0.58.

Q: With `CCCCCCCC` [octane] + CCCCCCn1cc[n+](C)c1.O=S(=O)([O-])C(F)(F)F as the compound, how does the activity coefficient (303.14 K, Chromatography) read?
A: The activity coefficient was 27.2 ± 1.9.

Q: And the activity coefficient (303.16 K, dilutor technique)?
A: Its activity coefficient is 27.1 ± 1.4.

Q: What about the activity coefficient (313.15 K, Chromatography) of the same compound?
A: Its activity coefficient is 25.8 ± 1.8.

Q: And the activity coefficient (313.18 K, dilutor technique)?
A: The activity coefficient was 25.5 ± 1.3.

Q: What about the activity coefficient (323.15 K, Chromatography) of the same compound?
A: The activity coefficient was 24.8 ± 1.7.

Q: What about the activity coefficient (323.16 K, dilutor technique) of the same compound?
A: Its activity coefficient is 24.6 ± 1.2.

Q: And the activity coefficient (333.14 K, Chromatography)?
A: Its activity coefficient is 23.8 ± 1.6.

Q: And the activity coefficient (333.14 K, dilutor technique)?
A: The activity coefficient was 23.4 ± 1.2.

Q: With `CCCCCCCC` [octane] + CCCCn1cc[n+](C)c1.O=S(=O)([O-])C(F)(F)F as the compound, how does the activity coefficient (303.12 K, Dilutor technique) read?
A: Its activity coefficient is 70.3 ± 3.5.

Q: And the activity coefficient (303.15 K, Chromatography)?
A: The activity coefficient was 71.2 ± 4.9.

Q: And the activity coefficient (313.15 K, Dilutor technique)?
A: The activity coefficient was 65.6 ± 3.3.

Q: And the activity coefficient (313.36 K, Chromatography)?
A: Its activity coefficient is 65.5 ± 4.5.

Q: What about the activity coefficient (323.12 K, Dilutor technique) of the same compound?
A: The activity coefficient was 60.1 ± 3.

Q: What about the activity coefficient (323.15 K, Chromatography) of the same compound?
A: The activity coefficient was 60.3 ± 4.1.

Q: And the activity coefficient (333.15 K, Chromatography)?
A: Its activity coefficient is 55.2 ± 3.8.

Q: What about the activity coefficient (333.21 K, Dilutor technique) of the same compound?
A: The activity coefficient was 55.7 ± 2.8.

Q: Which activity coefficient (313.19 K, Dilutor technique) does the source give for `CCCCC` [pentane] + CCCCn1cc[n+](C)c1.O=S(=O)([O-])C(F)(F)F here?
A: The activity coefficient was 18 ± 0.9.

Q: What about the activity coefficient (323.16 K, Dilutor technique) of the same compound?
A: The activity coefficient was 17.5 ± 0.87.

Q: What about the activity coefficient (333.22 K, Dilutor technique) of the same compound?
A: Its activity coefficient is 16.8 ± 0.84.
